In one assay the target is T1, serotonin transporter (Rattus norvegicus, UniProt P31652).
T1 construct: frontal cortical membranes prepared from male Sprague-Dawley rats; from tissue; host or cells: frontal cortex membranes of male Sprague-Dawley rats
The experiment in a line: Serotonin transporter affinity, 3H-paroxetine binding to frontal cortical membranes. The settings on record: 3H-paroxetine 0.1 nM, head also allows % Inh. @.1 µM. On the set-up: species or system Sprague-Dawley rats.

Another assay addresses T2, human 5-HT1A receptor (Homo sapiens, UniProt P08908).
T2 construct: expressed in transfected cells
T2 sequence (P08908 1-422): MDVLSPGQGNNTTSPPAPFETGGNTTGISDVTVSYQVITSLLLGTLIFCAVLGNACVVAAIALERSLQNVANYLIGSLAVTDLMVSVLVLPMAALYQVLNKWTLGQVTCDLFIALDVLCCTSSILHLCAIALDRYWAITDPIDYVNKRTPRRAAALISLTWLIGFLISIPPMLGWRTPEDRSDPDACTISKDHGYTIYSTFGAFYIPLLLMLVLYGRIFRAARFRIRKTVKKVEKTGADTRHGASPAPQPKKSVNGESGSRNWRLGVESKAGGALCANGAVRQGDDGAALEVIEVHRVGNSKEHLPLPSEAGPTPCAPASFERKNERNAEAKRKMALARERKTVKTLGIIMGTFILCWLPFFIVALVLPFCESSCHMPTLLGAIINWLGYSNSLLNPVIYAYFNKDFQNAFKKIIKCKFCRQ
The experiment in a line: 5-HT1A receptor binding assay with [3H]8-OH-DPAT in CHO cell membranes. Particulars: [3H]8-OH-DPAT 1.5 nM, membranes of CHO cells expressing human 5-HT1A receptor. The method, then:
A stable Chinese hamster ovary cell line expressing the human 5-HT1A receptor subtype (5H-HT1A.CHO cells) was employed throughout this procedure. Cells were maintained in DMEM supplemented with 10% fetal calf serum, non-essential amino acids and penicillin/ streptomycin.
Cells were grown to 95-100% confluency as a monolayer before membranes were harvested for binding studies. Cells were gently scraped from the culture plates, transferred to centrifuge tubes, and washed twice by centrifugation (at 2000 rpm for 10 min., 4°C) in buffer (50 mM Tris; pH 7.5). The resulting pellets were aliquoted and stored at -80•C until needed. On the day of assay, the cells were thawed on ice, and resuspended in buffer. Studies were conducted using [^3H]8-OH-DPAT as the radioligand. The binding assay was performed in 96 well microtiter plates in a final total volume of 250 µL of buffer. […] Non-specific binding was determined in the presence of 10 µM 5HT. Saturation analysis was conducted by using [^3H]8-OH-DPAT at concentrations ranging from 0.3-30 nM. Following a 30 minute incubation at room temperature, the reaction was terminated by the addition of ice cold buffer and rapid filtration using a M-96 Brandel Cell Harvester through a GF/B filter presoaked for 30 minutes in 0.5% polyethyleneimine.

[1] abbreviates: read-out: ST (Ki, nM, % Inh. @.1 µM).

Read-outs that look alike come from different tables or passages of the source.

T1 sequence (P31652 whole entry): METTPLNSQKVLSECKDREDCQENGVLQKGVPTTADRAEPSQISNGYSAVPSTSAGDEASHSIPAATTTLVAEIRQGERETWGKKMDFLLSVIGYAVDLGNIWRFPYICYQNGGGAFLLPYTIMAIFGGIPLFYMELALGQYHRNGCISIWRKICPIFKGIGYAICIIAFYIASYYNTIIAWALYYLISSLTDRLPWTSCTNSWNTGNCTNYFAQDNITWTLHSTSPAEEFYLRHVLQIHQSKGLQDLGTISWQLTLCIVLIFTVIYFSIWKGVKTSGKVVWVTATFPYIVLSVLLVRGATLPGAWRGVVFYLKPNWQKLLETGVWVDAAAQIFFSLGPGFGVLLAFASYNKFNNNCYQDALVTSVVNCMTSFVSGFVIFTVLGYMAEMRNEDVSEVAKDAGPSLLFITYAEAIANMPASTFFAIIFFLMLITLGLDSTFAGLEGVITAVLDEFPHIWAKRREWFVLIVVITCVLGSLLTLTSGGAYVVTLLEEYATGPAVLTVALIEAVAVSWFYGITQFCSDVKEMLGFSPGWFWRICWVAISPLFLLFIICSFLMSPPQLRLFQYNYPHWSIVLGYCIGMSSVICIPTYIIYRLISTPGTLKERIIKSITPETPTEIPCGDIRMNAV
Description for serotonin transporter: Briefly, frontal cortical membranes prepared from male Sprague-Dawley rats were incubated with ^3H-paroxetine (0.1 nM) for 60 min at 25°C. All tubes also contained either vehicle, test compound (one to eight concentrations), or a saturating concentration of fluoxetine (10 µM) to define specific binding. All reactions were terminated by the addition of ice cold Tris buffer followed by rapid filtration using a Tom Tech filtration device to separate bound from free ^3H-paroxetine.

Consider `CCCN1CC(CNCCCc2c[nH]c3ccc(F)cc23)Oc2ccccc21` (stereo not drawn) [Example 14, [3-(5-Fluoro-1H-indol-3-yl)-propyl]-(4-propyl-3,4-dihydro-2H-benzo[1,4]oxazin-2-yl-methyl)-amine], for which the figures for the inhibitory constant (Ki) on serotonin transporter (setting [1]) and on human 5-HT1A receptor were 26 nM and 16.8 nM, respectively.
Compound `Fc1ccc2[nH]cc(CCCNCC3COc4ccccc4N3)c2c1` (stereo not drawn) [Example 20, (3,4-Dihydro-2H-benzo[1,4]oxazin-3-yl-methyl)-[3-(5-fluoro-1H-indol-3-yl)propyl]-amine] gave an inhibition constant Ki at human 5-HT1A receptor of 12.3 nM.
Same read-out and setting: with `c1ccc(N2CC(CNCCCc3c[nH]c4ccccc34)Oc3ccccc32)cc1` (stereo not drawn) [Example 7, [3-(1H-Indol-3-yl)-propyl]-4-phenyl-3,(4-dihydro-2H-benzo[1,4]oxazin-2-yl-methyl)-amine] the figure was 30.2 nM.
Consider `CN1CC(CNCCCc2c[nH]c3ccc(F)cc23)Oc2cc(Cl)ccc21` (stereo not drawn) [Example 15, (7-Chloro-4-methyl-3,4-dihydro-2H-benzo[1,4]oxazin-2ylmethyl)-[3-(5-fluoro-1H-indol-3-yl)-propyl]-amine], for which the inhibition constant (Ki) at serotonin transporter (setting [1]) was determined as 44 nM; at human 5-HT1A receptor it was 75.2 nM.
In the same order, the values of `c1ccc2c(c1)NCC(CNCCCc1c[nH]c3ccccc13)O2` (stereo not drawn) [Example 1] are 79 nM and 6.9 nM.
As for `Fc1ccc2[nH]cc(CCCNCC3CN(c4ccccc4)c4ccccc4O3)c2c1` (stereo not drawn) [Example 11, [3-(5-Fluoro-1H-indol-3-yl)-propyl]-(4-phenyl-3,4-dihydro-2H-benzo[1,4]oxazin-2-yl-methyl)-amine], the Ki on serotonin transporter (setting [1]) came to 43 nM.
Consider `Fc1ccc2[nH]cc(CCCNCC3CN(c4ccccc4)c4ccccc4O3)c2c1` (single isomer, unassigned; (-)) [Example 18], for which the affinity at serotonin transporter (ST (Ki, nM, % Inh. @.1 µM)) corresponds to a Ki of 34 nM.
Regarding `CC(C)CN1CC(CNCCCc2c[nH]c3ccc(F)cc23)Oc2ccccc21` (stereo not drawn) [Example 10], the Ki stood at 85 nM at serotonin transporter (ST (Ki, nM, % Inh. @.1 µM)) and 8.15 nM at human 5-HT1A receptor.
Consider `CC(C)N1CC(CNCCCc2c[nH]c3ccc(F)cc23)Oc2ccccc21` (stereo not drawn) [Example 8, [3-(5-Fluoro-1H-indol-3-yl)-propyl]-(4-isopropyl-3,4-dihydro-2H-benzo[1,4]oxazin-2yl-methyl)-amine], for which the figures for the Ki at serotonin transporter (setting [1]) and at human 5-HT1A receptor were 25 nM and 2.8 nM, respectively.
On to `COc1ccc2c(c1)OC(CNCCCc1c[nH]c3ccc(F)cc13)CN2` (stereo not drawn) [Example 17], for which the inhibition constant (Ki) on serotonin transporter (setting [1]) is 15 nM; at human 5-HT1A receptor it was 103 nM.
The like results for `CCN1CC(CNCCCc2c[nH]c3ccc(F)cc23)Oc2ccccc21` (stereo not drawn) [Example 13, [3-(5-Fluoro-1H-indol-3-yl)-propyl]-(4-ethyl-3,4-dihydro-2H-benzo[1,4]oxazin-2-yl-methyl)-amine] were, in that order, 15 nM and 15.3 nM.
For the compound `CN1CC(CNCCCc2c[nH]c3ccccc23)Oc2ccccc21` (stereo not drawn) [Example 2], the Ki on serotonin transporter (ST (Ki, nM, % Inh. @.1 µM)) was 112 nM; at human 5-HT1A receptor, 5.9 nM.
As for `Fc1ccc2[nH]cc(CCCNCC3CN(c4ccccc4)c4ccccc4O3)c2c1` (single isomer, unassigned; (+)) [Example 19], the Ki at serotonin transporter (ST (Ki, nM, % Inh. @.1 µM)) was 40 nM.
On to `CN1CC(CNCCCc2c[nH]c3ccc(F)cc23)Oc2ccccc21` (stereo not drawn) [Example 5, [3-(5-Fluoro-1H-indol-3-yl)-propyl]-(4-methyl-3,4-dihydro-2H-benzo[1,4]oxazin-2-yl-methyl)-amine], for which the Ki at serotonin transporter (setting [1]) turned out to be 5.7 nM; at human 5-HT1A receptor, 8.5 nM.
Turning to `Fc1ccc2[nH]cc(CCCNCC3CNc4ccccc4O3)c2c1` (stereo not drawn) [Example 16, (3,4-Dihydro-2H-benzo[1,4]oxazin-2ylmethyl)-[3-(5-fluoro-1H-indol-3-yl)-propyl]-amine], the inhibition constant (Ki) on serotonin transporter (setting [1]) amounted to 16 nM; at human 5-HT1A receptor, 11 nM.
In the case of `c1ccc(CN2CC(CNCCCc3c[nH]c4ccccc34)Oc3ccccc32)cc1` (stereo not drawn) [Example 3, (4-Benzyl-3,4-dihydro-2H-benzo[1,4]oxazin-2ylmethyl)-[3-(1H-indo-3-yl)-propyl]-amine], the Ki was 21 nM at serotonin transporter (ST (Ki, nM, % Inh. @.1 µM)) and 7.8 nM on human 5-HT1A receptor.

A word on the Ki: it is a dissociation constant, usually derived from enzyme kinetics or from competition with a known ligand.

Source of the values: EP1140925B1, “(3,4 DIHYDRO-2H-BENZO[1,4] OXAZINYL-METHYL)- 3-(1H-INDOL-3- YL)-ALKYL -AMINES” (Wyeth, priority 1999, dated 2000).
